Measured values: EP0279757A1, “Kit for use as an agent for the selective destruction of transformed cells” (priority 1987, dated 1988)

Key:
Format in all cases: cell-based
cellules transformées = experiment: Selective destruction of transformed cells by micro-injection into one target cell followed by activation at 400 nm; conditions: set of 100 transformed cells, activation at 400 nm for 5 to 10 minutes
Text: Pour être utilisée conformément à l'objectif visé, la susbtance (a) doit être acheminée par toute technique appropriée dans au moins l'une des cellules transformées à détruire, à partir de laquelle elle passe de manière spécifique dans les autres cellules transformées du même site, par l'intermédiaire des "gap junctions". La technique préférée actuellement est la micro-injection, bien connue de l'homme du métier et décrite en détail dans l'article de Cancer Res. cité plus haut.
Dans la pratique, il apparaît avantageux de micro-injecter la substance (a) ou des solutions salines (par exemple en milieu physiologique) de la substance (a), à raison d'un volume pouvant ne pas dépasser environ 10% par rapport au volume de la cellule-cible, par des micro-injections fractionnées et espacées entre elles, par exemple à des intervalles de 10 minutes, ou par une micro-injection en continu.
Il est préférable de respecter une attente entre la dernière micro-injection ou la fin de la micro-injection en continu et l'entrée en fonction du moyen pour l'activation de la susbtance toxique (a), afin que le passage de cette dernière dans l'ensemble des cellules transformées du site traité soit effectif. […]

[1] = test system: cellules épithéliales de foie de rat transformées (IAR 27 ou IAR 6-1) et non transformées (IAR 20); experiment: Co-culture of transformed and non-transformed cells: micro-injection, dye diffusion and killing after near-UV exposure
Text: On a utilisé aussi des cellules épithéliales de foie de rat transformées et non transformées. Puisqu'à l'heure actuelle, il n'existe pas de mé-thode d'induction in situ de foyer épithélial transformée par des cancé-rogènes, on a cocultivé articifiellement des cellules épithéliales de foie de rat transformées et non transformées, de sorte que les deux types de cellules puissent être en contact. Lorsque les cellules transformées (IAR 27 ou IAR 6-1) sont cultivées avec des cellules non transformées (IAR 20), la frontière entre les deux types de cellules est clairement visible à cause de la différence de leur aspect morphologique.

[2] = test system: cellules BALB/c 3T3 transfectées par pEJ-ras-H (cellules transformées); experiment: Killing of transformed cells by micro-injection followed by near-UV irradiation (400 nm); conditions: micro-injection into transformed cells, irradiation at a frequency close to UV; checked by Trepan blue staining or microscopy
Text: Cet exemple concerne la destruction de cellules transformées, par micro-injection de Lucifer Yellow CH, suivie d'une irradiation à 400 nm.
Pour la production de cellules transformées, on a utilisé des cellules BALB/c 3T3, ce système de transformation assurant la production in situ de cellules transformées sur une couche mono-cellulaire normale, et simule ainsi la cancérogenèse in vivo.
Des cellules BALB/c 3T3 ont été transfectées par un oncogène activé que l'on a isolé d'un carcinome de vessie humaire, le pEJ-ras-H; par cette opération, on a obtenu des cellules transformées. […] Lorsque de nombreuses cellules sont tuées dans un foyer transformé, le foyer entier se décolle du fond de la boîte de Pétri. L'élimination de cellules se vérifie habituellement par coloration au "Trepan blue" mais peut également être confirmée par observation attentive au microscope : ces cellules ne montrent pas de capacité de prolifération; un grand nombre d'entre elles sont décollées.

[3] = test system: foyers transformés de cellules BALB/c 3T3; experiment: Stimulation of gap junction communication by an exogenous compound and its effect on selective elimination
Procedure: L'efficacité d'élimination a également été augmentée par stimulation de la communication des "gap junctions" par un composé exogène : après addition de dibutyryl c-AMP (1mM) dans une boîte de Pétri qui contient des foyers transformés de cellules BALB/c 3T3, on a observé que les communications intercellulaires sont stimulées dans les foyers transformés et dans la monocouche non transformée; cependant, les deux types de cellules ne communiquent pas entre eux.

Compound	destruction de cellules transformées (cellules transformées)	mort des cellules-cibles ([1]; after exposure to near-UV radiation)	diffusion du colorant ([1]; micro-injection in co-culture of IAR 27 or IAR 6-1 with IAR 20)	élimination sélective des cellules transformées [2]	élimination sélective dans les cellules transformées ([3]; 1mM added to the Petri dish, elimination by Lucifer Yellow CH micro-injection and irradiation)	communications intercellulaires ([3]; 1mM added to the Petri dish, in transformed foci and in the non-transformed monolayer, the two cell types do not communicate with each other)	spécificité de communication intercellulaire ([3]; prolonged treatment, transformed phenotypes then began to disappear)
Lucifer Yellow CH	destruction sélective complète	la mort des cellules	diffusion sélective du colorant dans les cellules du même type	on a pu les tuer	–	–	–
CCCC(=O)Nc1ncnc2c1ncn2[C@@H]1O[C@@H]2COP(=O)(O)O[C@H]2[C@H]1OC(=O)CCC [dibutyryl c-AMP]	–	–	–	–	plus facilement	stimulées	suppression de la spécificité de communication
